{
  "source": "patent EP0294069A2",
  "about": "“Purine compounds, process for their preparation, intermediates and pharmaceutical compositions” (priority 1987, dated 1988)",
  "key": {"[1]": {"tested_on": "HSV-1 (SC16 strain, MRC-5 cells)", "assay": "Plaque reduction test for herpes simplex virus 1", "assay_type": "cell-based", "settings": "Human alphaherpesvirus 1, MRC5, plaque number reduced by 50%"}, "[2]": {"tested_on": "Visna Virus (K184 strain in SCP cells)", "assay": "CPE inhibition test (established monolayer) for lentiviruses", "assay_type": "cell-based", "settings": "Visna-maedi virus", "procedure": "3 x 10⁴ sheep choroid plexus (SCP) cells were plated into individual wells of a 96 well microtitre plate in 100µl of Eagle's MEM with Hanks salts containing 10% heat inactivated foetal calf serum (FCS). When monolayers had become established (after l or 2 days growth) they were washed with 200µl of maintenance medium (Eagle's MEM with Hanks salts containing 0.5% FCS) and infected with 100µl of visna virus (strain K184) in maintenance medium (30 TCID₅₀/ml). Test samples were diluted with maintenance medium in further 96 well microtitre plates over the range 200-0.09µg/ml by 3-fold dilution steps. 100µl of the diluted samples was then transferred directly onto virus-infected monolayers (final concentration range therefore 100-0.045µg/ml) and incubated at 37°C in a humidified, 5% CO₂ incubation until virus-induced CPE was maximal in the untreated virus-infected controls (usually 12-14 days). The plates were fixed with formal saline and stained with crystal violet. Virus-induced CPE was then scored microscopically and the minimum concentration of sample giving complete protection of the cell monolayers (MIC) determined."}, "[3]": {"assay": "Drug-induced cytotoxicity in uninfected cell monolayers", "assay_type": "cell-based", "settings": "uninfected cells, not cytotoxic at concentrations up to 100 µg/ml, read-out: concentration at which cytotoxicity occurs", "procedure": "(§1) Cultures were fixed in formal saline, the agarose overlays were carefully washed off, and then the cell monolayers were stained with carbol fuchsin. A stereo microscope was used to count plaques. The IC₅₀ (concentration to drug which inhibits plaque number by 50% relative to the number of plaques observed in virus control monolayers) of the test compound was calculated. In addition, the monolayers were examined for evidence of drug-induced cytotoxicity; the minimum concentration at which cytotoxicity occurs was recorded."}, "[4]": {"tested_on": "HSV-2 (MS strain, MRC-5 cells)", "assay": "Plaque reduction test for herpes simplex virus 2", "assay_type": "cell-based", "settings": "Human alphaherpesvirus 2, MRC5, plaque number reduced by 50%", "procedure": "Cells (Vero or MRC-5) were grown to confluence in 24 well multi-dishes (well diameter = 1.5cm). The drained cell monolayers were each infected with approximately 50 infectious particles of herpes simplex virus 1 (HSV-1; strain HFEM) or herpes simplex virus 2 (HSV-2; strain MS) in 100µl of phosphate-buffered saline. The virus was adsorbed for 1 hour at room temperature. After adsorption, residual inoculum was removed from each well and replaced with 0.5ml of Eagle's MEM containing 5% newborn calf serum and 0.9% agarose (A37). Once the agarose had set, dilutions of the test compound, which had been prepared in Eagle's MEM (containing 5% newborn calf serum), were added, each well receiving 0.5ml of liquid overlay. The test compound was diluted to give the following series of concentrations: 200, 60, 20, 6....0.06µg/ml; final concentrations in the assay ranged, therefore, between 100µg/ml and 0.03µg/ml. […]\nas §1, with “A stereo microscope was used to count plaques.” left out"}, "[5]": {"assay": "Antiviral potency, comparison of isomers (no method given)", "settings": "as compared with the (R)-isomer"}},
  "data": [
    {"smiles": "Nc1nc2c(ncn2OC[C@@H](O)CO)c(=O)[nH]1", "note": "[Preparation Example, (S)-9-(2,3-Dihydroxyprop-1-oxy)quanine]", "values": [
      {"measurement": "IC50", "setting": "[1]", "result": 0.7, "unit": "µg/mL"},
      {"measurement": "IC50", "setting": "[2]", "result": 10, "unit": "µg/mL"},
      {"measurement": "MCC", "setting": "[3]", "result": "> 100", "unit": "µg/mL"},
      {"measurement": "IC50", "setting": "[4]", "result": 0.06, "unit": "µg/mL"}
    ]},
    {"smiles": "Nc1ncc2ncn(OC[C@@H](O)CO)c2n1", "note": "[Example, (S)-2-Amino-9-(2,3-dihydroxyprop-l-oxy)purine]", "values": [
      {"measurement": "potency as an antiviral agent", "setting": "[5]", "result": "greater potency"}
    ]}
  ]
}
